These results are taken from patent US20210329919A9, “SYNTHESIS AND ANTI-CANCER ACTIVITY OF COMMUNESIN ALKALOIDS” (Massachusetts Institute of Technology, priority 2019, published 2021).

Data set [1] has as its system DU-145 (prostate carcinoma). Nature of the data set: Cell viability assay (Cell Titer-Glo), DU-145. It is filed as cell-based, human. The conditions noted are these: read-out: IC50 (μM) DU-145. On the procedure:
(§1) Cells were grown in media supplemented with fetal bovine serum (FBS) and antibiotics ([…] and 100 U/mL streptomycin). Specifically, experiments were performed using the following cell lines and media compositions: HeLa (cervical adenocarcimona) and A549 (lung carcinoma) were grown in RPMI-1640+10% FBS; HCT-116 (colorectal carcinoma) was grown in DMEM+10% FBS; DU-145 (prostate carcinoma) and MCF7 (breast adenocarcinoma) were grown in EMEM+10% FBS. Cells were incubated at 37° C. in a 5% CO2, 95% humidity atmosphere.
(§2) Cells were plated at 2000 cells/well into duplicate assay plates in 50 L media into 384-well white, opaque, tissue-culture treated plates and allowed to adhere overnight at 37° C./5% CO2. Compounds were solubilized in DMSO as 1000× stocks and 100 nl was pin-transferred to cells (V&P pin tool mounted on Tecan Freedom Evo MCA96). Compounds were tested in 10-pt, 2-fold dilution with concentrations tested between 1 nM-20 μM for most compounds, except where indicated. DMSO (32 wells of 384-wells) was used as vehicle control. After 72 hours of incubation at 37° C./5% CO2, 10 L Cell Titer-Glo (Promega) was added to each well and plates were incubated at room temperature for 10 minutes before the luminescence was read on a Tecan M1000 plate reader. Cell Titer-Glo measures ATP levels of cells as a surrogate for cell viability. All compound-treated wells was normalized to the DMSO control averages and expressed as a % of DMSO viability. IC50 values were determined from the dose curves using Spotfire (Perkin Elmer).
(In general: Cellular ATP, detected with luciferase, serves as a proxy for viable cell number.)

Data set [2] concerns A549, DU-145, HCT116, HeLa and MCF7 cell lines. The experiment in a line: Cytotoxicity across all five cancer cell lines (text summary of Table 1). The conditions noted are these: for decrease in potency/activity relative to (−)-communesin B (4): N8-H or N8-formyl vs N8-methyl. On the procedure:
as §1, §2
With samples of all known communesin alkaloids and a selection of unnatural derivatives in hand, the anticancer activity for this entire class of natural products was explored. While previous isolation reports have evaluated the activity of selected natural communesins, no comprehensive comparison of the entire class of alkaloids across multiple cell lines has been performed.

For another data set, the system named is A549 (lung carcinoma). Nature of the data set: Cell viability assay (Cell Titer-Glo), A549. The data set is classed as cell-based, human. The conditions noted are these: read-out: IC50 (μM) A549. On the procedure: as §1, §2
The test system of data set [3] is HeLa (cervical adenocarcinoma). The experiment in a line: Cell viability assay (Cell Titer-Glo), HeLa. The data set is classed as cell-based, human. The conditions noted are these: read-out: IC50 (μM) HeLa. On the procedure:
as §1, §2

In data set [4] the test system is MCF7 (breast adenocarcinoma). Nature of the data set: Cell viability assay (Cell Titer-Glo), MCF7. It is filed as cell-based, human. Conditions: read-out: IC50 (μM) MCF7. On the procedure: as §1, §2
Data set [5] deals with HCT-116 (colorectal carcinoma). The experiment in a line: Cell viability assay (Cell Titer-Glo), HCT-116. It is filed as cell-based, human. The conditions noted are these: read-out: IC50 (μM) HCT-116. On the procedure: as §1, §2
Data set [6] deals with third instar larvae of silkworms. Conditions: cited from earlier work; for insecticidal activity compared with communesin B (4): silkworms.
The test system of data set [7] is P-388 lymphocytic leukemia cells. Conditions: cultured mouse P-388 lymphocytic leukemia cells; cited from earlier work.
The next data set deals with vasculogenesis. Conditions: in vivo; cited from earlier work.
The test system of data set [8] is human leukemia cell lines. Conditions: array of human leukemia cell lines; cited from earlier work.
Setting [9] is: Homo sapiens, DU-145, cytotoxicity after 72 h of compound treatment, Cell Titer-Glo (ATP levels).
[10] abbreviates: Homo sapiens, A549, cytotoxicity after 72 h of compound treatment, Cell Titer-Glo (ATP levels).
[11] abbreviates: Homo sapiens, cytotoxicity after 72 h of compound treatment, Cell Titer-Glo (ATP levels).
[12] abbreviates: Homo sapiens, MCF7, cytotoxicity after 72 h of compound treatment, Cell Titer-Glo (ATP levels).
The mark [13] stands for this setting: Homo sapiens, HCT-116, cytotoxicity after 72 h of compound treatment, Cell Titer-Glo (ATP levels).
Setting [14] is: cytotoxicity after 72 h of compound treatment, Cell Titer-Glo (ATP levels).

≈ marks a conversion by molar mass, not a printed value. Like-named read-outs stand apart in the source and are kept apart here.

Take `C/C=C/C=C/C(=O)N1CC[C@@]23c4ccccc4N[C@@H]4N(C=O)c5cccc6c5[C@@]42CCN([C@@H]13)[C@@H]6[C@H]1OC1(C)C` [(+)-6, (+)-communesin D]: the half-inhibitory concentration (IC50) (in general, the concentration needed to halve the response being measured) in data set [1] (Homo sapiens, DU-145, 72 h) is 84 µM; in the data set on A549 (lung carcinoma) (Homo sapiens, A549, 72 h) it was greater than 125 µM; in data set [3] (Homo sapiens, 72 h) it was 63 µM; in [4] (Homo sapiens, MCF7, 72 h), greater than 125 µM; in data set [5] (Homo sapiens, HCT-116, 72 h), 111 µM. Further, in [2], the “decrease in potency/activity relative to (−)-communesin B (4)” value was “two- to threefold decrease in activity”.

`CC(=O)N1CC[C@@]23c4ccccc4N[C@@H]4N(C=O)c5cccc6c5[C@@]42CCN([C@@H]13)[C@@H]6[C@H]1OC1(C)C` [(+)-43, (+)-N8-formyl communesin E]: the concentration for half-maximal inhibition (IC50) in data set [1] (setting [9]) was greater than 250 µM; in the data set on A549 (lung carcinoma) (setting [10]), greater than 250 µM; in [3] (setting [11]), greater than 125 µM; in data set [4] (setting [12]), greater than 250 µM; in data set [5] (setting [13]), greater than 250 µM. Also, in [2], the “cytotoxic potency across all cell lines (in words)” value was “principally inactive”.

As to `CC(=O)N1CC[C@@]23c4ccccc4N[C@@H]4N(C)c5cccc6c5[C@@]42CCN([C@@H]6C=C(C)C)[C@@H]13` [(−)-1, (−)-communesin F], the IC50 is 119 µM in [1] (setting [14]); 117 µM in the data set with A549 (lung carcinoma) (setting [14]); 115 µM in data set [3] (setting [14]); 84 µM in [4] (setting [14]); greater than 125 µM in [5] (setting [14]).

Regarding `CC(=O)N1CC[C@@]23c4ccccc4N[C@@H]4N(C)c5cccc6c5[C@@]42CCN([C@@H]13)[C@@H]6[C@H]1OC1(C)C` [(−)-2, (−)-communesin A], the IC50 in data set [1] (setting [9]) is greater than 250 µM; in the data set on A549 (lung carcinoma) (setting [10]), greater than 125 µM; in [3] (setting [11]) it was greater than 125 µM; in data set [4] (setting [12]), greater than 250 µM; in [5] (setting [13]), greater than 250 µM. Also, the “cytotoxic potency across all cell lines (in words)” value in [2] is “principally inactive”.

Consider `CC(=O)N1CC[C@@]23c4ccccc4N[C@@H]4Nc5cccc6c5[C@@]42CCN([C@@H]13)[C@@H]6[C@H]1OC1(C)C` [(−)-3, (−)-communesin E], for which the IC50 (in data set [1] (setting [9]); in the data set with A549 (lung carcinoma) (setting [10]); in [3] (setting [11]); in [4] (setting [12]); in data set [5] (setting [13])) was greater than 500 µM throughout. Besides, the “cytotoxic potency across all cell lines (in words)” value in [2] is “principally inactive”.

As to `C/C=C/C=C/C(=O)N1CC[C@@]23c4ccccc4N[C@@H]4N(C)c5cccc6c5[C@@]42CCN([C@@H]13)[C@@H]6[C@H]1OC1(C)C` [(−)-4, (−)-communesin B], the IC50 in [1] (setting [9]) worked out at 45 µM; with A549 (lung carcinoma) (setting [10]), 56 µM; in data set [3] (setting [11]) it was 47 µM; in data set [4] (setting [12]), 34 µM; in data set [5] (setting [13]), 60 µM.

Consider `C/C=C/C=C/C(=O)N1CC[C@@]23c4ccccc4N[C@@H]4Nc5cccc6c5[C@@]42CCN([C@@H]13)[C@@H]6[C@H]1OC1(C)C` [(−)-5, (−)-communesin C], for which the IC50 in [1] (Homo sapiens, DU-145, 72 h) came to 82 µM; in the data set on A549 (lung carcinoma) (Homo sapiens, A549, 72 h) it was 115 µM; in data set [3] (Homo sapiens, 72 h), 94 µM; in data set [4] (Homo sapiens, MCF7, 72 h) it was 65 µM; in data set [5] (Homo sapiens, HCT-116, 72 h), 106 µM. For the same molecule, the “decrease in potency/activity relative to (−)-communesin B (4)” value in data set [2] was “two- to threefold decrease in activity”.

Consider `CCC(=O)N1CC[C@]23c4ccccc4N[C@H]4N(C)c5cccc6c5[C@]42CCN([C@H]6[C@@H]2OC2(C)C)[C@H]13` [(−)-7, (−)-communesin G], for which the concentration for half-maximal inhibition (IC50) was greater than 125 µM in data set [1] (setting [14]); greater than 125 µM in the data set with A549 (lung carcinoma) (setting [14]); greater than 125 µM in [3] (setting [14]); greater than 250 µM in data set [4] (setting [14]); greater than 125 µM in [5] (setting [14]). Moreover, in [2], the “cytotoxic potency across all cell lines (in words)” value is “principally inactive”.

With `CCCC(=O)N1CC[C@]23c4ccccc4N[C@H]4N(C)c5cccc6c5[C@]42CCN([C@H]6[C@@H]2OC2(C)C)[C@H]13` [(−)-8, (−)-communesin H], the IC50 in [1] (setting [14]) was greater than 125 µM; with A549 (lung carcinoma) (setting [14]), greater than 125 µM; in data set [3] (setting [14]) it was 82 µM; in data set [4] (setting [14]) it was 90 µM; in [5] (setting [14]), 109 µM.

Consider `CCC[C@H](O)CC(=O)N1CC[C@@]23c4ccccc4N[C@@H]4N(C)c5cccc6c5[C@@]42CCN([C@@H]13)[C@@H]6[C@H]1OC1(C)C` [(−)-10, (−)-communesin I], for which the IC50 in data set [1] (setting [14]) is greater than 125 µM; in the data set with A549 (lung carcinoma) (setting [14]), 120 µM; in data set [3] (setting [14]), 120 µM; in data set [4] (setting [14]), 90 µM; in [5] (setting [14]) it was greater than 125 µM.

In the case of `C/C=C/C=C/C(=O)N1CC[C@@]23c4ccccc4N[C@@H]4N(C)c5cccc6c5[C@@]42CCN([C@@H]13)[C@@H]6[C@H]1OC1(C)C` [(−)-communesin B (4)], the “cytotoxic potency across all cell lines (in words)” value in data set [2] is recorded as “highest potency of all the natural products tested”.

With `C/C=C/C=C/C(=O)N1CC[C@@]23c4ccccc4N[C@@H]4N(C)c5cccc6c5[C@@]42CCN([C@@H]13)[C@@H]6[C@H]1OC1(C)C` [(−)-communesin B], the “cytotoxic potency across all cell lines (in words)” value in [2] (A549, DU-145, HCT116, HeLa, MCF7) is “most potent natural isolate”.

Take `CC(=O)N1CC[C@@]23c4ccccc4N[C@@H]4N(C)c5cccc6c5[C@@]42CCN([C@@H]13)[C@@H]6[C@H]1OC1(C)C` [Communesin A (2), (−)-communesin A]: the “insecticidal activity compared with communesin B (4)” value in [6] is “lower insecticidal activities”. The “ED50, cytotoxicity” value in data set [7] was 3.5 µg/mL (≈ 7.67 µM). In addition, the vasculogenetic activity result in the data set on vasculogenesis was “moderate vasculogenetic activity”.

Regarding `C/C=C/C=C/C(=O)N1CC[C@@]23c4ccccc4N[C@@H]4N(C)c5cccc6c5[C@@]42CCN([C@@H]13)[C@@H]6[C@H]1OC1(C)C` [Communesin B (4), communesin B], the “LD50, insecticidal” value in data set [6] (third instar larvae of silkworms, oral administration) was 5 μg/g of diet. Besides, the “ED50, cytotoxicity” value in [7] was 0.45 µg/mL (≈ 0.885 µM).

Regarding `CC(=O)N1CC[C@@]23c4ccccc4N[C@@H]4N(C)c5cccc6c5[C@@]42CCN([C@@H]6C=C(C)C)[C@@H]13` [Communesin F (1), (−)-communesin F], the “insecticidal activity compared with communesin B (4)” value in data set [6] is listed as “lower insecticidal activities”.

For `C/C=C/C=C/C(=O)N1CC[C@@]23c4ccccc4N[C@@H]4Nc5cccc6c5[C@@]42CCN([C@@H]13)[C@@H]6[C@H]1OC1(C)C` [communesin C (5), (−)-communesin C], the anti-proliferative activity result in data set [8] is given as “moderate anti-proliferative activity”.

For `C/C=C/C=C/C(=O)N1CC[C@@]23c4ccccc4N[C@@H]4N(C=O)c5cccc6c5[C@@]42CCN([C@@H]13)[C@@H]6[C@H]1OC1(C)C` [communesin D (6), (+)-communesin D], the anti-proliferative activity entry in [8] was “moderate anti-proliferative activity”. Besides, in [6], the “insecticidal activity compared with communesin B (4)” value is “lower insecticidal activities”.
